In patent publication US9752151B2, “Composition for treatment or metastasis suppression of cancers which includes p34 expression inhibitor or activity inhibitor as active ingredient” (THE ASAN FOUNDATION, priority 2013, dated 2017):

How the values were obtained:
PTEN [1] = test: PTEN ubiquitination (PTEN immunoprecipitation, ubiquitin Western blotting) in MDA-MB-231; format: cell-based, human; conditions: 1 μM, 24 hours
Protocol: (§1) The p34 activity inhibitor, Compound 27, in a concentration of 1 μM was treated with human breast cancer cell lines MDA-MB-231 and colorectal cancer cell lines LS1034 for 24 hours, and immunoprecipitation was performed using a PTEN antibody. Thereafter, Western blotting was performed using an ubiquitin antibody. The result is illustrated in FIG. 62.

PTEN [2] = test: PTEN ubiquitination (PTEN immunoprecipitation, ubiquitin Western blotting) in LS1034; format: cell-based, human; conditions: 1 μM, 24 hours
Protocol: as §1

[3] = target: T1, p34 protein and NEDD4-1 protein (Homo sapiens, UniProt Q9UHV2); test: GST-pull down of p34 and NEDD4-1 proteins binding; conditions: 1 mM or 3 mM, 30° C., 1 hour, purified proteins
T1 construct: made in house; host or cells: E. coli BL-21 (DE3) (printed for GST-p34 in the earlier pull-down)
T1 sequence (Q9UHV2 1-236): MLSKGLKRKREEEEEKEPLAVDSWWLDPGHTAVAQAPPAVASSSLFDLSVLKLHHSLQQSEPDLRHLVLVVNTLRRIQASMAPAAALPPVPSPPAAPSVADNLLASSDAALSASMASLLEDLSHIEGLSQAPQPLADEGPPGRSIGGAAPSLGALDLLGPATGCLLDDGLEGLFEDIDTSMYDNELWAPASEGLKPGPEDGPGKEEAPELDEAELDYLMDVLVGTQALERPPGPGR
Protocol: Purified NEDD4-1 protein and p34 protein were treated with a reaction buffer (20 mM Tris-HCl pH7.5, 120 mM NaCl) and the p34 activity inhibitor Compound 27 in a concentration of 1 mM or 3 mM, and reacted at 30° C. for 1 hour. Thereafter, the reaction was stopped using GST-pull down buffer (20 mM Tris-HCl pH8.0, 500 mM NaCl, 1% Triton X-100, 0.02% BSA, 5 mM mercaptoethanol), and then pulled down with glutathione-sepharose beads at 4° C. Western blotting was performed using anti-His and anti-GST antibodies. The result is illustrated in FIG. 63.

MDA-MB-231 = test: Trypan blue dye cell death, MDA-MB-231; format: cell-based, human; conditions: MDA-MB-231, per each concentration, 48 hours
Protocol: (§2) Human breast cancer cell lines MDA-MB-231 were treated with the p34 activity inhibitor Compound 27 per each concentration for 48 hours, and then trypan blue dye and Western blotting were performed. The result is illustrated in FIG. 64.

[4] = test system: PTEN protein, Akt, caspase3; test: Western blotting after p34 activity inhibitor, MDA-MB-231; format: cell-based, human; conditions: MDA-MB-231, 48 hours
Protocol: as §2

PTEN [5] = test: PTEN lipid phosphatase activity, MDA-MB-231; format: cell-based, human; conditions: MDA-MB-231, 48 hours, OD 650 nm
Protocol: (§3) Also, human breast cancer cell lines MDA-MB-231 were treated with p34 activity inhibitor Compound 27 per each concentration for 48 hours, and cell sap was collected and immunoprecipitation was performed using a PTEN antibody. Thereafter, it was reacted with a reaction buffer solution (100 mM Tris-HCl pH8.0, 10 mM DTT) containing water-soluble diC8-phosphatidylinositol 3,4,5 tri-phosphate at 37° C. for 40 minutes, and only the supernatant was collected to be reacted with Biomol Green solution at room temperature for 30 minutes. Then, PTEN lipid phosphatase activity was measured at OD 650 nm. The result is illustrated in FIG. 65.

LS1034 = test: Trypan blue dye cell death, LS1034; format: cell-based, human; conditions: LS1034, per each concentration, 48 hours
Protocol: as §2
(§4) The same experiments were performed using human colorectal cancer cell lines LS1034. The results are illustrated in FIGS. 66 and 67.

[6] = test system: PTEN protein, Akt, caspase3; test: Western blotting after p34 activity inhibitor, LS1034; format: cell-based, human; conditions: LS1034, 48 hours
Protocol: as §2, §4

PTEN [7] = test: PTEN lipid phosphatase activity, LS1034; format: cell-based, human; conditions: LS1034, 48 hours, OD 650 nm
Protocol: as §3, §4

PTEN protein [8] = test: Western blotting after co-transfection of GFP-tagged p34 and NEDD4-1-siRNA/shRNA, 293 cells; format: cell-based; conditions: 293 cells co-transfected with GFP-tagged p34; decreased with GFP-tagged p34 alone
Protocol: (§5) The expression levels of each protein were analyzed using Western blotting. The result is illustrated in FIG. 23.

PTEN protein [9] = test: Western blotting after co-transfection of GFP-tagged p34 and NEDD4-1-siRNA/shRNA, MEF cells; format: cell-based, mouse; conditions: MEF cells co-transfected with GFP-tagged p34; decreased with GFP-tagged p34 alone
Protocol: as §5

GST-PTEN fusion protein [10] = target: T2, GST-PTEN fusion protein (UniProt P60484 1-403); test: GST pull-down with purified recombinant GST-PTEN, Western blotting (FIG. 8)
T2 construct: Purified recombinant protein; also called purified recombinant GST-PTEN; not shown: GST tag
T2 sequence (P60484 whole entry, the tested form may be a part): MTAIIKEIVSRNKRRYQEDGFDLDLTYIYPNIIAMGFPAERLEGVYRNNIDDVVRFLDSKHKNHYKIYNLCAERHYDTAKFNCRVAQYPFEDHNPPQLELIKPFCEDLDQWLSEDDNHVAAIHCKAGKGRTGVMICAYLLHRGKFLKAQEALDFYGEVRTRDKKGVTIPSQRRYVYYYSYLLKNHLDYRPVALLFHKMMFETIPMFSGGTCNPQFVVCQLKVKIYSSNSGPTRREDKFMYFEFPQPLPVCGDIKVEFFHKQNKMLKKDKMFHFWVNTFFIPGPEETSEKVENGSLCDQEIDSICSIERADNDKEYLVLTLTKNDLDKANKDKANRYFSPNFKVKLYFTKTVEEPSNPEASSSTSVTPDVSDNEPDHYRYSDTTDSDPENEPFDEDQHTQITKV

[11] = target: T3, GST-tagged NEDD4-1 mutant lacking WW1 domain (GST-delWW1) (UniProt P46934-4 1-900, limits assumed); test: GST pull-down of GST-delWW1 with lysate of cells expressing His-p34 (FIG. 10)
T3 construct: also called NEDD4-1 protein lacking the WW1 domain; not shown: GST tag
T3 sequence (looked up): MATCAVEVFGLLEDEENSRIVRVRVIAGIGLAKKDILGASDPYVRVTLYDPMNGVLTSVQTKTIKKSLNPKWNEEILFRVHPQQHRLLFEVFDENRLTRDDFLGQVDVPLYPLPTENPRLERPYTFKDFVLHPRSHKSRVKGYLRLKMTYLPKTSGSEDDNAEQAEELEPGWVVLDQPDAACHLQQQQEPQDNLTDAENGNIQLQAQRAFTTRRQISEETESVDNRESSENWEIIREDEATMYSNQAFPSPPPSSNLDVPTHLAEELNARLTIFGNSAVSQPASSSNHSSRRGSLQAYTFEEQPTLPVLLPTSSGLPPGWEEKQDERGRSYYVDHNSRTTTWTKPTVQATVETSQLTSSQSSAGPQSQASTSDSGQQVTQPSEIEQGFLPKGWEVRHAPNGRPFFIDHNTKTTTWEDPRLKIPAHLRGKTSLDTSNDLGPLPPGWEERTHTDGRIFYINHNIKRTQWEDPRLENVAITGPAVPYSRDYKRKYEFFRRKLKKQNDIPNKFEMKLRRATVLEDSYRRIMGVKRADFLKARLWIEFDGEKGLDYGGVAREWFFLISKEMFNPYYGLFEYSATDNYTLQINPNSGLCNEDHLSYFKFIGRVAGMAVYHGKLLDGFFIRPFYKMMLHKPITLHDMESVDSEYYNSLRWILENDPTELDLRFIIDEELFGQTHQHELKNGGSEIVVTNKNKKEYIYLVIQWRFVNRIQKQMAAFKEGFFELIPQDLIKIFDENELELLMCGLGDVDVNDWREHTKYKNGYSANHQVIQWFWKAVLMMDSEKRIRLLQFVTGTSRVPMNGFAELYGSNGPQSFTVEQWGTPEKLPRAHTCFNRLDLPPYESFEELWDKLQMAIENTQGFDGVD
Protocol: (2) In order to verify the above result, plasmids containing GST-tagged wild-type NEDD4-1 mutants lacking WW1 domain (GST-delWW1) were prepared. The mutant proteins of NEDD4-1 were incubated with a lysing solution isolated from cells expressing His-p34, and then GST-pull down assay was performed. The result is illustrated in FIG. 10.

GST-PTEN fusion protein [12] = target: T2, GST-PTEN fusion protein; test: GST pull-down of GST-PTEN with lysate of cells expressing Myc-NEDD4-1 and His-p34 (FIG. 11)
Protocol: In order to investigate whether p34 affects PTEN and NEDD4-1 binding, GST-PTEN fusion proteins were incubated with the lysing solution of cells expressing Myc-NEDD4-1 and His-p34, and then GST-pull down assay was performed. As a control group, GST proteins were used. The result is illustrated in FIG. 11.

`Cc1[nH]c2ccc(-c3nnc(OCC(=O)NC(C)c4nc5ccccc5[nH]4)o3)cc2c1C` (stereo not drawn) [Compound 27] was tested, and the PTEN ubiquitination (PTEN [1]) was “inhibiting PTEN ubiquitination”, the PTEN ubiquitination (PTEN [2]) was “inhibiting PTEN ubiquitination” and the “p34 protein and NEDD4-1 protein binding” value [3] was “inhibited the p34 protein and the NEDD4-1 protein binding in a dose dependent manner”. The cell death (MDA-MB-231) was “cell death was induced”, the Akt dephosphorylation [4] was “Akt dephosphorylation occurred” and the PTEN protein [4] was “reactivated”. For the same molecule, the caspase3 activation [4] was “caspase3 was activated”, the “PTEN lipid phosphatase activity” value (PTEN [5]) was “increased PTEN lipid phosphatase activity” and the cell death (LS1034) was “cell death was induced”. For the same molecule, the Akt dephosphorylation [6] was “Akt dephosphorylation occurred”, the PTEN protein [6] was “reactivated” and the caspase3 activation [6] was “caspase3 was activated”. The “PTEN lipid phosphatase activity” value (PTEN [7]) was “increased PTEN lipid phosphatase activity”.

“NEDD4-1-siRNA/shRNA: NEDD4-1-siRNA: 5′-TGGCGATTTGTAAACCGAA-3′ (SEQ ID NO 4) (listed as DNA, chemistry not given here)” was tested, and the “levels of PTEN protein” value (PTEN protein [8]) was “remained substantially unchanged” and the “levels of PTEN protein” value (PTEN protein [9]) was “remained substantially unchanged”.

B1: p34 protein (construct not stated) (other, UniProt Q9UHV2 1-236, looked up)
chain: MLSKGLKRKREEEEEKEPLAVDSWWLDPGHTAVAQAPPAVASSSLFDLSVLKLHHSLQQSEPDLRHLVLVVNTLRRIQASMAPAAALPPVPSPPAAPSVADNLLASSDAALSASMASLLEDLSHIEGLSQAPQPLADEGPPGRSIGGAAPSLGALDLLGPATGCLLDDGLEGLFEDIDTSMYDNELWAPASEGLKPGPEDGPGKEEAPELDEAELDYLMDVLVGTQALERPPGPGR
notes: also called purified p34 protein
B1: no binding (GST-PTEN fusion protein [10]).

B2: His-tagged p34 (other, UniProt Q9UHV2 1-236, looked up)
chain: MLSKGLKRKREEEEEKEPLAVDSWWLDPGHTAVAQAPPAVASSSLFDLSVLKLHHSLQQSEPDLRHLVLVVNTLRRIQASMAPAAALPPVPSPPAAPSVADNLLASSDAALSASMASLLEDLSHIEGLSQAPQPLADEGPPGRSIGGAAPSLGALDLLGPATGCLLDDGLEGLFEDIDTSMYDNELWAPASEGLKPGPEDGPGKEEAPELDEAELDYLMDVLVGTQALERPPGPGR
notes: Expressed in cells and used as lysate; also called His-p34; not shown: His tag
B2: no binding [11]; no binding (GST-PTEN fusion protein [12]).
